These results are taken from ChEMBL document CHEMBL1135523, “(4R,5S)/(4S,5R)-4,5-Bis(4-hydroxyphenyl)-2-imidazolines: ligands for the estrogen receptor with a novel binding mode” (J Med Chem, 2002).

Assay [1] addresses T1, Estrogen receptor (Homo sapiens, UniProt P03372).
T1 sequence (P03372 whole entry): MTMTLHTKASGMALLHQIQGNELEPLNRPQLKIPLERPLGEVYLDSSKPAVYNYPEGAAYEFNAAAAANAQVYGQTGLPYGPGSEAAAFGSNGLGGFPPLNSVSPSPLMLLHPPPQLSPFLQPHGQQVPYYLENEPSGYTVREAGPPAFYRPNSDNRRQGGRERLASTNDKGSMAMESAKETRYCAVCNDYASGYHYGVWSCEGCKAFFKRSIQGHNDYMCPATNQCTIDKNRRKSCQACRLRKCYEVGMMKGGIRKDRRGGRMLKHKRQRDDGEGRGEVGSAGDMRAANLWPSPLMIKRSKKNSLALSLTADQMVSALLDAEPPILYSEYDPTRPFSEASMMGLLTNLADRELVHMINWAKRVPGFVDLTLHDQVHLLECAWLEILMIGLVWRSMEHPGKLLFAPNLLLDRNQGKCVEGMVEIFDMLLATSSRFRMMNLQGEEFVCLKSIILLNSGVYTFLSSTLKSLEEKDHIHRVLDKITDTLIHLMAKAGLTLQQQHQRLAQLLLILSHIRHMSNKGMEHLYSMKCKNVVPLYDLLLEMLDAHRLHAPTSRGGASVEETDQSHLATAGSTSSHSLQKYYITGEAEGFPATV
The assay can be described thus: Agonist activity in transcriptional activation assay in MCF-7-2a cells compared to estradiol E2. Format: functional, cell-based.

In assay [2] the target is Estrogen receptor (Bos taurus) (UniProt Q9XSB5+P49884). The assay can be described thus: Displacement of 17-beta-[3H]-estradiol from Estrogen receptor of calf uterine cytosol at 20 uM. The class given is protein assay.

Structures are written as SMILES.

The term EC50 denotes the concentration needed to bring the measured effect to its halfway point. A higher EC50 goes with weaker potency. The compound `Oc1ccc([C@H]2N=CN[C@H]2c2ccc(O)cc2I)c(I)c1` returned an EC50 in assay [1] of 1800 nM. This compound also had a Control in assay [2] of 42.9%. With `Oc1ccc([C@@H]2N=CN[C@@H]2c2c(Cl)cc(O)cc2Cl)c(F)c1`, in assay [1], the 50% effective concentration (EC50) came to 620 nM. For the same compound, in assay [2], the Control came out at 40.1%. Take `Oc1ccc([C@@H]2N=CN[C@@H]2c2c(Cl)cc(O)cc2Cl)c(Cl)c1`: in assay [1], the EC50 worked out at 65 nM. For the same compound, in assay [2], the Control turned out to be 70.3%. The corresponding values for `Oc1ccc([C@H]2NC=N[C@H]2c2ccc(O)cc2Cl)c(Cl)c1` are 380 nM and 44%.

`Cc1cc(O)ccc1[C@H]1N=CN[C@H]1c1ccc(O)cc1C` had a Control in assay [2] of 0%. With `Oc1ccc([C@H]2N=CN[C@H]2c2ccc(O)cc2)cc1`, the Control in assay [2] worked out at 1.7%.

`Oc1ccc([C@H]2N=CN[C@H]2c2ccc(O)cc2F)c(F)c1` had a Control in assay [2] of 20.9%.
